pIC50: −log10 of the molar value. Values belong to the molecule of their own block, whether it stands above or below them.
Tests used:
DMS114 cells = assay: Incucyte proliferation (% confluence over time), DMS114 cells, long-term treatment; assay type: cell-based; details: compound A 1 microM, BMS-754807 300 nM, GSK1838705A 1 microM, each alone
Procedure: The insensitive cells were isolated and profiled with the aim to determine the active signaling pathways that act as drivers for their survival and/or proliferation. Therefore, DMS114 cells, a small cell lung cancer cell line with FGFR1 amplification were plated onto 10 cm culture plates and placed in an incubator at 37° C., 5% CO2. […] In the case of the parental cells with or without DMSO control, when the cells reached the confluence close to 100% they were trypsinized and re-plated back on the plate. […] After about 2-3 weeks from the initial treatment, cells were taken out of the plate by trypsinization and passaged on new plate for further expanding.
There were also treatments of the cells with single agents with or without DMSO or treatments with DMSO alone to serve as vehicle control. The proliferation of the cells was followed using the Incucyt machine, measuring the % of confluence of the cells over time.

[1] = test system: DMS114 cells, a small cell lung cancer cell line with FGFR1 amplification; assay: Alamar blue proliferation assay, parental DMS114 cells; assay type: cell-based; details: Homo sapiens, DMS-114, 96 h, Parental cells (with DMSO control), 4 days
resistant DMS114 cells [2] = assay: Alamar blue proliferation assay, DMS114 cells resistant to compound A; assay type: cell-based
resistant DMS114 cells [3] = assay: Incucyte proliferation, resistant DMS114 cells kept in compound A, long-term treatment; assay type: cell-based; details: resistant DMS114 cells kept in compound A 1 microM; GSK1838705A 1 microM; over 33 days
Excerpt: An additional experiment was run wherein the resistant DMS114 cells were exposed to 1 microM of GSK1838705A and the growth/proliferation of the cells was monitored on the Incucyte machine. Cells were kept under this condition for over 33 days, and the medium was replaced twice a week.

[4] = test system: most sensitive cancer cell lines; assay: Cell based proliferation assay (alamar blue assay), cancer cell lines; details: read-out: IC50 in the most sensitive cancer cell lines
Procedure: Cells were seeded in 180 μl of medium at optimized cell densities in black 96 well plates with clear flat bottom. The outer wells were filled with 180 μl of medium. Cells were incubated for 24 hours at 37° C. and 5% CO2.
Compound/medium plates were placed on a shaker for 10 minutes and then 20 μl of compound in medium was added to the cells (10× dilution). Cells were incubated at 37° C. and 5% CO2 for 4 days until alamarBlue® readout.
After 4 days of incubation with compound: Add 40 μl of alamarBlue® ready to use mix to each well. Incubate plates at 37° C. and 5% CO2. Measure plates after 4 or 6 hours of incubation (depends on cell line).

SMILES: C[C@@]1(C(=O)Nc2ccc(F)nc2)CCCN1c1nc(Nc2cc(C3CC3)[nH]n2)c2cccn2n1 [BMS-754807]
proliferation (% confluence over time), single agent (DMS114 cells): did not impact the proliferation

SMILES: CNC(=O)c1c(F)cccc1Nc1nc(Nc2cc3c(cc2OC)CCN3C(=O)CN(C)C)nc2[nH]ccc12 [GSK1838705A]
pIC50 [1]: < 5.00
pIC50 (resistant DMS114 cells [2]; Homo sapiens, DMS-114, 96 h, Resistant cells, 4 days): 5.70
inhibition of proliferation of resistant DMS114 cells (resistant DMS114 cells [2]; resistant DMS114 cells): strongly inhibited the proliferation of the resistant DMS114 cells
proliferation (% confluence over time), single agent (DMS114 cells): did not impact the proliferation
proliferation of resistant cells, long term treatment (resistant DMS114 cells [3]): completely blocked and over the long term treatment (>30 days) did not gain ability to grow out

pIC50 [4]: > 8.00
SMILES: COc1cc(OC)c(F)c(N(Cc2ncc[nH]2)c2ccc3ncc(-c4cnn(C)c4)nc3n2)c1 [compound B, N-(2-fluoro-3,5-dimethoxyphenyl)-N-(1H-imidazol-2-ylmethyl)-3-(1-methyl-1H-pyrazol-4-yl)pyrido[2,3-b]pyrazin-6-amine]

From US10736900B2, “Combinations of an FGFR inhibitor and an IGF1R inhibitor” (ASTEX THERAPEUTICS LTD, priority 2014, dated 2020)
